From patent US10006005B2, “Culture medium and method for inducing differentiation of pluripotent stem cells to hepatoblasts” (National University Corporation Chiba University, priority 2014, dated 2018)

Assays:
[1] = test system: human iPS cell line (201B7); experiment: Cell proliferation assay (MTS assay) of surviving iPS cells; type: cell-based
Method: A human iPS cell line (201B7, Riken Cell Bank) was seeded to a 96-well flat-bottomed plate coated with Matrigel at 1,000 cells/50 μl per well. After 48 hours of culture, 3-(4,5-dimethylthiazol-2-yl)-5-(3-carboxymethoxyphenyl)-2-(4-sulfophenyl)-2H-tetrazolium inner salt (MTS; manufactured by Promega) was added at 5 μl per well, and the cells were incubated in an incubator for 2 hours. After that, cell proliferation was verified by measuring an absorbance at a wavelength of 490 nm with iMark™ Microplate Absorbance Reader (manufactured by Bio-Rad).
In view of the foregoing, MTS assay was performed 48 hours after the addition of M50054.

AFP gene = AFP gene expression in cultured iPS cells by real-time quantitative PCR; type: cell-based, human; settings: for expression level of AFP gene: 2 days in HSM plus compound alone (10 μM)
Method: (§1) A human iPS cell line (201B7; Riken Cell Bank) was seeded to a 25-cm^2 flask (manufactured by Asahi Glass Co., Ltd.), a 6-well plate (manufactured by Asahi Glass Co., Ltd.), or a 96-well flat-bottomed plate (manufactured by Asahi Glass Co., Ltd.), which is coated with Matrigel, and was cultured in a 5% CO2 incubator at 37° C. The coating with Matrigel was performed by: adding a solution prepared by adding 8.7 ml of Dalbecco's Modified Eagle's Medium/Nutrient F-12 Ham (manufactured by Sigma) to 0.3 ml of Matrigel™ (manufactured by Becton Dickinson) to a 25-cm^2 flask, a 6-well plate, and a 96-well flat-bottomed plate, in amounts of 1 ml, 0.5 ml, and 20 μl, respectively; and leaving the whole to stand still at room temperature for 30 minutes. ReproFF (manufactured by ReproCELL Incorporated) was used as a cell culture medium. ReproFF is a culture medium for culturing primate ES cells or human IFS cells while maintaining the pluripotency. The cells were passaged by culture using a 25-cm^2 flask. The cells were dispersed as described below. After the aspiration of the medium, the 25-cm^2 flask was rinsed with 1 ml of physiological saline per flask. After the aspiration of the saline, 0.5 ml of Accutase (manufactured by Innovative Cell Technologies) was added and the cells were incubated in an incubator for 5 minutes. 0.5 ml of ReproFF was added, and the cells were harvested. Then, the cells were centrifuged at 1,000 rpm for 3 minutes. The supernatant was removed by aspiration, and then the precipitated cells were used by being suspended in ReproFF.
A medium used in a search study on various growth factors (hereinafter abbreviated as iPSm[-]) was prepared by adding 20% Knockout™ Serum Replacement (hereinafter abbreviated as KSR; manufactured by Life Technologies), Minimum Essential Amino Acids (manufactured by Life Technologies), 2 mM L-glutamine (manufactured by Life Technologies), and 1 mM 2-mercaptoethanol (manufactured by Sigma-Aldrich) to Dulbecco's […]-F12 (manufactured by Sigma-Aldrich) (Takahashi, K. et al., “Induction of Pluripotent Stem Cells from Adult Human Fibroblasts by Defined Factors,” Cell, 2007, Vol. 131, No. 5, p. 861-872).
Cell differentiation was confirmed by measuring an expression gene by real-time quantitative PCR. RNA was extracted by using Isogen (manufactured by NIPPON GENE) according to the manufacturer's instructions. 5 μg of total RNA was synthesized by using Superscript3 first-strand synthesis system for PCR (manufactured by Life Technologies) and an oligo dT primer according to the manufacturer's instructions. Real-time quantitative PCR was performed using 4 ng of synthesized cDNA per sample. PCR was performed as follows: PCR were 40 cycles of denaturation for 5 seconds and annealing-extension for 5 seconds. SYBR Green Master Mix (manufactured by Life Technologies) was used for the reaction. Mini Opticon system (manufactured by Bio-Rad) was used for detection in real-time PCR. The expression level of each gene was calculated as an average value of data obtained from three wells. Ribosomal protein L (RPL)-19 was used as an internal control and the expression level of each gene was represented as a relative expression level to the expression level of RPL-19.
First, iPS cells were cultured in HSM to confirm differentiation of the iPS cells to hepatocytes. Specifically, iPS cells were cultured in HSM for 2 days, and then gene expression in the cells was measured by real-time quantitative PCR. Thus, the induction of differentiation of iPS cells to hepatocytes was detected. ReproFF was used as a control medium and similar investigations were performed.
In this Example, the addition of NEAA and sodium pyruvate (1 mM) to HSM was investigated for the purpose of enhancing the survival of iPS cells. Specifically, iPS cells were cultured for 2 days in a medium prepared by adding NEAA and sodium pyruvate (1 mM) to HSM, and the expression of AFP gene was measured by real-time quantitative PCR. […]

[2] = test system: human iPS cell line (201B7); experiment: Optical microscopic observation of survival of cultured human iPS cells; type: cell-based; settings: reagent added to culture in HSM, observed after 3 days; M50054 at 100 μg/mL
Method: as §1
An optical microscope CKX41N-31PHP (manufactured by Olympus Corporation) was used for an optical microscopic observation of cells. […]
Further, RNA was extracted and the expression levels of various genes were analyzed by real-time quantitative PCR. […]
The resultant cells were observed under an optical microscope. In addition, the expression level of AFP in the resultant cells was measured.

[3] = 1 week in iPSm(-) supplemented with growth factor
[4] = 48 hours in HSM supplemented with the factor alone

With O=C1CCCC(=O)C1CC1C(=O)CCCC1=O [M50054, 2,2′-methylenebis(1,3-cyclohexanedione)] the “MTS assay value, one-way analysis of variance” value ([1]; 100 μg/mL compared to 0 μg/mL and 1,000 μg/mL, P<0.05) was “significantly high value”, the “cell toxicity (MTS assay)” value ([1]; 1,000 μg/mL) was “showed cell toxicity” and the “absorbance in MTS assay (surviving cells)” value ([1]; 48 hours after addition of M50054, 100 g/mL as printed) was “maximum absorbance”. For the same molecule, the “expression of AFP gene” value (AFP gene; 48 hours in HSM plus M50054 at […] as printed) was “upregulated” and the “survival of iPS cells observed with an optical microscope” value (“survival of iPS cells observed” for short) [2] was “some of the iPS cells survived”.

With “HGF: hepatocyte growth factor, commercially available from Wako Pure Chemical Industries” the “expression of AFP gene” value (AFP gene; [3]) was “upregulating effect”.

With O=C1OC(C=Cc2ccccc2)=N/C1=C\c1cccnc1 [DAPK inhibitor, (4Z)-4-(3-pyridylmethylene)-2-styryl-oxazol-5-one] the “survival of iPS cells observed” value [2] was “died”.

O=C(O)c1ccc(Cl)c(S(=O)(=O)Nc2cccc([N+](=O)[O-])c2)c1 [CTP inhibitor, 4-chloro-3-[[(3-nitrophenyl)amino]sulfonyl]-benzoic acid] was tested, and the “survival of iPS cells observed” value [2] was “died”.

Cc1ccc(Cl)cc1N(CC(=O)Nc1c(F)cccc1F)S(C)(=O)=O [FPH1, 2-(N-(5-chloro-2-methylphenyl)methylsulfonamido)-N-(2,6-difluorophenyl)acetamide] was tested, and the “expression level of AFP gene” value (AFP gene) was “increased”.

For CC(=O)Nc1ccc(Cc2ccc(NC(C)=O)cc2)cc1 [FH1, N,N′-(methylenebis(4,1-phenylene))diacetamide], the “expression level of AFP gene” value (AFP gene) was “did not exhibit such effect”.

B1: oncostatin M: cytokine of the IL-6 family (protein, UniProt P13725 26-221, looked up)
Oncostatin-M: AAIGSCSKEYRVLLGQLQKQTDLMQDTSRLLDPYIRIQGLDVPKLREHCRERPGAFPSEETLRGLGRRGFLQTLNATLGCVLHRLADLEQRLPKAQDLERSGLNIEDLEKLQMARPNILGLRNNIYCMAQLLDNSDTAEPTKAGRGASQPPTPTPASDAFQRKLEGCRFLHGYHRFMHSVGRVFSKWGESPNRSRR
B1 was tested, and the “expression of AFP gene” value (AFP gene; [3]) was “upregulating effect”, the “expression of AFP gene, compared to HGF” value (AFP gene; [4]) was “high upregulating effect” and the “expression of AFP gene, compared to fetal liver” value (AFP gene; [4]) was “more upregulated than the expression of the gene in fetal liver”.
